Data from patent US6844358B2, “Phenyl oxo-acetic acids useful in the treatment of insulin resistance and hyperglycemia” (Wyeth, priority 1998, dated 2005).
Like-named read-outs stand apart in the source and are kept apart here.

Columns and labels:
[1] = system: diabetic (ob/ob) mice; experiment: Blood glucose lowering activity in diabetic (ob/ob) mice; assay type: in vivo; details: Mus musculus, po
Method: The procedures used and results obtained are briefly described below. […]
In each test procedure, mice [Male or female ob/ob (C57 B1/6J) and their lean litermates (ob/+ or +/+, Jackson Laboratories) ages 2 to 5 months (10 to 65 g)] of a similar age were randomized according to body weight into 4 groups of 10 mice. The mice were housed 5 per cage and are maintained on normal rodent chow with water ad libitum. Mice received test compound daily by gavage (suspended in 0.5 ml of 0.5% methyl cellulose); dissolved in the drinking water; or admixed in the diet. The dose of compounds given ranges from 2.5 to 200 mg/kg body weight/day. The dose is calculated based on the fed weekly body weight and is expressed as active moiety. […] Control mice received vehicle only.
On the morning of Day 4, 7 or 14 two drops of blood (approximetly 50 ul) were collected into sodium fluoride containing tubes either from the tail vein or after decapitation. For those studies in which the compound was administered daily by gavage the blood samples were collected two hours after compound administration. […]
Analysis of variance followed by Dunett's Comparison Test (one-tailed) are used to estimate the significant difference between the plasma glucose values from the control group and the individual compound treated groups (CMS SAS Release 5.18).

[2] = molecular target: T1, recombinant rat protein tyrosine phosphatase, PTP1B (rPTP1B) (Rattus norvegicus, UniProt P20417); assay type: biochemical; details: for % change from control at 10 μM: 10 μM compound
T1 sequence (P20417 1-432): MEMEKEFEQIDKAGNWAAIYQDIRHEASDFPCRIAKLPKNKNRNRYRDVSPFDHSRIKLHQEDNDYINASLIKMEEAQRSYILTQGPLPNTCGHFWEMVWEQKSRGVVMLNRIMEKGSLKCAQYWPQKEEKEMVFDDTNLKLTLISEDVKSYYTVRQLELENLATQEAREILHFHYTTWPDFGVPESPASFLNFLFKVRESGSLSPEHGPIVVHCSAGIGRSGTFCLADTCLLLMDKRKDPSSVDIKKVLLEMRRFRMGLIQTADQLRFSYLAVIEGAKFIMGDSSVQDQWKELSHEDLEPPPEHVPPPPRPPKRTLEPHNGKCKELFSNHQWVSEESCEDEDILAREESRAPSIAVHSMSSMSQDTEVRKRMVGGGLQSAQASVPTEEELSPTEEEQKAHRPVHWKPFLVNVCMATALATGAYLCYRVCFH

[3] = molecular target: rat hepatic microsomal PTPases; details: rat hepatic microsomal PTPase; for IC50: dodecaphosphopeptide substrate 50 uM; for % Change from Control at 50 μM: 50 μM compound
[4] = 96 h, plasma glucose on Day 4, 7 or 14, suffix a = no significant activity at this dose, read-out: % Change Glucose from Vehicle
[5] = suffix a = no significant activity at this dose, read-out: % Change Insulin from Vehicle

| Compound | change in vivo at 100 mg/kg [1, 4] [%] | change in vivo at 100 mg/kg [1, 5] [%] | IC50 [2] [µM] | IC50 [3] [µM] | % change from control at 10 μM ([2]; rPTP1B) | % Change from Control at 50 μM [3] [%] | melting point [°C] | IC50 ([2]; rPTP1B, read-out: IC50) [µM] |
| --- | --- | --- | --- | --- | --- | --- | --- | --- |
| CC1(COc2ccc(CC3SC(=O)NC3=O)cc2)CCCCC1 (centres unmarked) [Ciglitazone, 5-(4-(1-methylcyclohexylmethoxy)benzyl)-2,4-dione, reference compound] | -43 | -39 | – | – | – | – | – | – |
| CCc1oc2ccccc2c1C(=O)c1cc(Br)c(O)c(Br)c1 [Example 1, (2-Ethyl-benzofuran-3-yl)-(3,5-dibromo-4-hydroxy-phenyl)-methanone] | -44.6 | -89.5 | 25.8 | 70.1 | – | – | – | – |
| CCc1oc2ccccc2c1C(=O)c1cc(Br)c(OCC(=O)O)c(Br)c1 [Example 2, [2,6-dibromo-4-(2-ethyl-benzofuran-3-carbonyl)-phenoxy]-acetic acid] | -48.1 | -78.2 | – | – | −30 (rPTP1B) % | −25 | 135 to 137 | – |
| CCc1oc2ccccc2c1Cc1cc(Br)c(O)c(Br)c1 [Example 3, 2,6-Dibromo-4-(2-ethyl-benzofuran-3-yl-methyl)-phenol] | -6.2 | -56.6 | – | – | −74 (rPTP1B) % | −34 | 87 to 88 | – |
| CCc1oc2ccccc2c1C(=O)c1cc(Br)c(O)c(Br)c1O [Example 4, (3,5-Dibromo-2,4-dihydroxy-phenyl)-(2-ethyl-benzofuran-3-yl)-methanone] | -19.8 | -61.8 | – | 34.3 | −64 (rPTP1B) % | – | 150 to 151 | – |
| CCCCc1oc2ccccc2c1C(=O)c1cc(Br)c(OCC(=O)O)c(Br)c1 [Example 5, [2,6-Dibromo-4-(2-butyl-benzofuran-3-carbonyl)-phenoxy]-acetic acid] | -20.1 | -54.8 | – | 31.2 | −78 (rPTP1B) % | – | 92 to 94 | – |
| CCCCc1oc2ccccc2c1C(=O)c1cc(Br)c(O)c(Br)c1 [Example 6, (2-Butyl-benzofuran-3-yl)-(3,5-dibromo-4-dihydroxy-phenyl)-methanone] | -40.6 | -70.4 | – | 24.2 | −90 (rPTP1B) % | – | – | – |
| CCc1oc2ccccc2c1C(=O)c1c(Br)cc(Br)c(O)c1Br [Example 8, (2-Ethyl-benzofuran-3-yl)-(2,4,6-tribromo-3-hydroxy-phenyl)-methanone] | -3.3 | -31.2 | – | 17.5 | −61 (rPTP1B) % | – | 153 to 154 | – |
| O=C(c1cc(I)c(O)c(I)c1)c1c(Cc2ccccc2)oc2ccccc12 [Example 9, (2-Benzyl-benzofuran-3-yl)-(4-hydroxy-3,5-diiodo-phenyl)-methanone] | -37.1 | -73.7 | – | 22.7 | −99 (rPTP1B) % | – | 153 to 154 | – |
| O=C(O)COc1c(Br)cc(C(=O)c2c(Cc3ccccc3)oc3ccccc23)cc1Br [Example 10, [4-(2-Benzyl-benzofuran-3-carbonyl)-2,6-dibromo-phenoxy]-acetic acid] | -17.7 | -70 | – | 36 | −75 (rPTP1B) % | – | 165 to 167 | – |
| O=C(O)COc1c(Br)cc(C(=O)c2c(Cc3ccccc3)sc3ccccc23)cc1Br [Example 12, [4-(2-Benzyl-benzo[b]thiophen-3-carbonyl)-2,6-dibromo-phenoxy]-acetic acid] | -30.7 | -60.7 | – | 27.8 | −88 (rPTP1B) % | – | 162 to 163 | – |
| CCc1oc2ccc(Cl)cc2c1C(=O)c1cc(Br)c(O)c(Br)c1 [Example 13, (5-Chloro-2-ethyl-benzofuran-3-yl)-(3,5-dibromo-4-hydroxy-phenyl)-methanone] | -12 | -74.5 | – | 27.1 | −64 (rPTP1B) % | – | – | – |
| O=C(c1cc(Br)c(O)c(Br)c1)c1c(Cc2ccccc2)oc2ccccc12 [Example 14, (2-Benzyl-benzofuran-3-yl)-(3,5-dibromo-4-hydroxy-phenyl)-methanone] | -36.8 | -40.7 | – | 27.8 | −81 (rPTP1B) % | – | 156 to 158 | – |
| O=C(c1cc(Br)c(O)c(Br)c1)c1c(CCc2ccccc2)oc2ccccc12 [Example 15, (3,5-Dibromo-4-hydroxy-phenyl)-(2-phenethyl-benzofuran-3-yl)-methanone] | -32.8 | -10.3 | – | 20.5 | – | – | 153 to 154 | 2.6 |
| O=C(O)COc1c(I)cc(C(=O)c2c(Cc3ccccc3)oc3ccccc23)cc1I [Example 17, [4-(2-Benzyl-benzofuran-3-carbonyl)-2,6-diiodo-phenoxy]-acetic acid] | – | – | – | 28.4 | −97 (rPTP1B) % | – | 144 to 146 | – |
| CCc1oc2ccccc2c1C(=O)c1cc(I)c(O)c(I)c1 [Example 18, (2-ethyl-benzofuran-3-yl)-(4-hydroxy-3,5-diiodo-phenyl)-methanone] | -39.6 | -83.6 | – | 30.7 | −60 (rPTP1B) % | – | – | – |
| O=C(O)COc1c(Br)cc(C(=O)c2c(CCc3ccccc3)oc3ccccc23)cc1Br [Example 19, [2,6-Dibromo-4-(2-phenethyl-benzofuran-3-carbonyl)-phenoxy]-acetic acid] | – | – | – | 26.3 | −53 (rPTP1B) % | – | 163 to 164 | – |
| CCc1oc2ccc(Cl)cc2c1C(=O)c1cc(Br)c(OCC(=O)O)c(Br)c1 [Example 20, [2,6-dibromo-4-(5-chloro-2-ethyl-1-benzofuran-3-carbonyl)-phenoxy]-acetic acid] | – | – | – | 40.4 | −34 (rPTP1B) % | – | 175 to 177 | – |
| O=C(c1cc(Br)c(OCP(=O)(O)O)c(Br)c1)c1c(Cc2ccccc2)sc2ccccc12 [Example 21, [4-(2-benzyl-benzo[b]thiophen-3-carbonyl)-2,6-dibromo-phenoxymethyl]-phosphonic acid] | – | – | – | 34.5 | −35 (rPTP1B) % | – | 210 to 212 | – |
